Experimental data: ChEMBL document CHEMBL1201862, “PubChem BioAssay data set” (2004)
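Five compound concentrations were applied to cells in 96-well plates for 48 hours; endpoints were derived by simple linear interpolation of the resulting dose-response curve. The concentration for 50% growth inhibition is given as GI50.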 The source made the active and inactive calls. Rule as the data show it: active = GI50 up to about 1.1 µM and inactive = higher.

Assays:
Assay in all cases: NCI anticancer screen, dose series, 48 h
MDA-N = test system: MDA-N
OVCAR-3 = test system: OVCAR-3
NCI/ADR-RES = test system: NCI/ADR-RES
OVCAR-5 = test system: OVCAR-5
786-0 = test system: 786-0
MDA-MB-231 = test system: MDA-MB-231
BT-549 = test system: BT-549
HOP-92 = test system: HOP-92
OVCAR-4 = test system: OVCAR-4
CCRF-CEM = test system: CCRF-CEM
UACC-257 = test system: UACC-257
CAKI-1 = test system: CAKI-1
MCF7 = test system: MCF7
T47D = test system: T47D
UO-31 = test system: UO-31
SNB-75 = test system: SNB-75
M14 = test system: M14
OVCAR-8 = test system: OVCAR-8

Measured: GI50

CC(=O)Oc1ccc(-c2nnc(-c3ccc(OC(C)=O)cc3)nn2)cc1
inactive: MDA-N > 100 µM | OVCAR-3 > 100 µM | NCI/ADR-RES 38.8 µM | OVCAR-5 > 100 µM | 786-0 > 100 µM | MDA-MB-231 > 100 µM | BT-549 > 100 µM | HOP-92 > 100 µM | OVCAR-4 > 100 µM | CCRF-CEM 40.6 µM | UACC-257 > 100 µM | CAKI-1 > 100 µM | MCF7 > 100 µM | T47D > 100 µM | UO-31 64 µM | SNB-75 > 100 µM | M14 > 100 µM | OVCAR-8 > 100 µM

Cc1ccsc1/C=N/NC1=NCCN1
inactive: MDA-N > 100 µM | OVCAR-3 > 100 µM | NCI/ADR-RES > 100 µM | OVCAR-5 > 100 µM | 786-0 > 100 µM | MDA-MB-231 > 100 µM | BT-549 > 100 µM | HOP-92 > 100 µM | OVCAR-4 > 100 µM | CCRF-CEM > 100 µM | UACC-257 > 100 µM | CAKI-1 > 100 µM | MCF7 > 100 µM | T47D > 100 µM | UO-31 > 100 µM | SNB-75 > 100 µM | M14 > 100 µM | OVCAR-8 > 100 µM

NC(Cc1ccccc1)C(=O)N[C@H]1c2ccsc2/C(=N/O)[C@H]1O (stereo not given in full)
inactive: MDA-N > 100 µM | OVCAR-3 > 100 µM | NCI/ADR-RES > 100 µM | OVCAR-5 > 100 µM | MDA-MB-231 > 100 µM | BT-549 > 100 µM | HOP-92 > 100 µM | OVCAR-4 > 100 µM | CCRF-CEM > 100 µM | UACC-257 > 100 µM | CAKI-1 > 100 µM | MCF7 > 100 µM | T47D > 100 µM | UO-31 25.6 µM | M14 > 100 µM | OVCAR-8 > 100 µM

COC(CNC(=O)C(C)NC(=O)C(C)NC(=O)c1ccccc1)OC (stereo not given)
inactive: MDA-N > 100 µM | NCI/ADR-RES > 100 µM | OVCAR-5 > 100 µM | 786-0 > 100 µM | MDA-MB-231 > 100 µM | BT-549 > 100 µM | HOP-92 > 100 µM | OVCAR-4 > 100 µM | CCRF-CEM > 100 µM | UACC-257 > 100 µM | CAKI-1 > 100 µM | MCF7 > 100 µM | T47D > 100 µM | SNB-75 > 100 µM | M14 > 100 µM | OVCAR-8 > 100 µM

COC(=O)C1CC(C=[N+](C)C)=C(SC)N1 (stereo not given)
inactive: MDA-N > 100 µM | OVCAR-3 > 100 µM | NCI/ADR-RES > 100 µM | OVCAR-5 > 100 µM | 786-0 > 100 µM | MDA-MB-231 > 100 µM | BT-549 > 100 µM | HOP-92 > 100 µM | OVCAR-4 > 100 µM | UACC-257 > 100 µM | CAKI-1 > 100 µM | MCF7 > 100 µM | T47D > 100 µM | UO-31 > 100 µM | SNB-75 > 100 µM | M14 > 100 µM | OVCAR-8 > 100 µM

CC1CC[C@@]2(OC1)OC1C[C@H]3[C@@H]4CC=C5CC(OC6OC(CO)C(OC7OC(CO)C(O)C(OC8OCC(O)C(O)C8O)C7OC7OC(CO)C(OC8OC(C)C(OC9OC(C)C(O)C(O)C9O)C(O)C8O)C(O)C7O)C(O)C6O)CCC5(C)[C@H]4CCC3(C)C1[C@@H]2C (stereo not given in full)
inactive: MDA-N 9.02 µM | OVCAR-3 10.8 µM | NCI/ADR-RES 9.48 µM | OVCAR-5 7.46 µM | 786-0 2.37 µM | MDA-MB-231 5.36 µM | BT-549 9.2 µM | HOP-92 7.46 µM | OVCAR-4 4.21 µM | CCRF-CEM 10.4 µM | UACC-257 9.35 µM | CAKI-1 7.55 µM | MCF7 14.1 µM | T47D 9.29 µM | M14 4.28 µM | OVCAR-8 9.95 µM

CC1(C)CCCC(C)(C2CCC3(C)C2C(O)CC2C4(C)CCC(O)C(C)(C)C4CCC23C)O1 (stereo not given)
inactive: MDA-N > 100 µM | NCI/ADR-RES 55 µM | OVCAR-5 > 100 µM | 786-0 75.7 µM | MDA-MB-231 34.5 µM | BT-549 > 100 µM | HOP-92 76.6 µM | OVCAR-4 66.2 µM | CCRF-CEM > 100 µM | UACC-257 > 100 µM | CAKI-1 42.7 µM | MCF7 61.1 µM | T47D > 100 µM | UO-31 > 100 µM | SNB-75 29.4 µM | M14 > 100 µM | OVCAR-8 42.4 µM

O=C1CC(c2ccccc2Cl)C2(C(=O)NC(=O)NC2=O)C(c2ccccc2Cl)C1 (stereo not given)
inactive: MDA-N 78 µM | OVCAR-3 32.6 µM | NCI/ADR-RES > 100 µM | OVCAR-5 > 100 µM | 786-0 > 100 µM | MDA-MB-231 > 100 µM | BT-549 > 100 µM | HOP-92 > 100 µM | OVCAR-4 > 100 µM | CCRF-CEM > 100 µM | UACC-257 > 100 µM | MCF7 54.1 µM | T47D 18.8 µM | UO-31 > 100 µM | SNB-75 > 100 µM | M14 > 100 µM | OVCAR-8 > 100 µM
